# Tested on: ketamine schizophrenia model rats (大鼠分裂症氯胺酮模型大鼠)
# Experiment: Social interaction test in ketamine-induced schizophrenia model rats (total activity time, aggressive and non-aggressive behaviour)
# Format: in vivo, rat
# Conditions: n=20, mean±SD
# [1] = day of drug withdrawal, after 7 days i.m. dosing (compounds A-E 1 mg/kg; risperidone 2 mg/kg), ketamine model Wistar rats, 7 min test, * P<0.05, ** P<0.01 vs model
compound,measurement,setting,value
Cc1nc2n(c(=O)c1CCN1CCC(c3noc4cc(F)ccc34)CC1)CCCC2 [利培酮],total activity time,"7 days after drug withdrawal, after 7 days i.m. dosing (compounds A-E 1 mg/kg; risperidone 2 mg/kg), ketamine model Wistar rats, 7 min test, * P<0.05, ** P<0.01 vs model",18.2±6.3
same,total activity time,"before dosing (baseline), male Wistar rats, ketamine 30 mg/kg i.p. 5 days",13.9±2.9
same,number of aggressive behaviours,[1],3.1±1.5
same,number of non-aggressive behaviours,[1],6.3±3.9
same,total activity time,[1],23.2±6.1

# From CN103800339A, “一类治疗精神分裂症的化合物及其用途” (Individual, priority 2012, dated 2014)
